Data published in patent US11952392B2, “Arginase inhibitors and methods of use thereof” (AstraZeneca AB, priority 2018, dated 2024).

Test: Gravity vapor sorption (GVS) analysis
Type: physicochemical
[1] = at relative humidity (RH) of 80%

| Compound | RH after which the solid starts to deliquesce (GVS) | water absorbed (GVS) (at relative humidity (RH) of 70%) | water absorbed (GVS) [1] |
| --- | --- | --- | --- |
| CC(C)[C@H](N)C(=O)N[C@H]1CN[C@]2(CCCCB(O)OC2=O)C1 [Example 1, (S)-2-amino-N-((3R,5R)-8-hydroxy-6-oxo-7-oxa-1-aza-8-boraspiro[4.7]dodecan-3-yl)-3-methylbutanamide] | > 80 % RH | less than 2% |  |
| CC(C)[C@@H]1NC(C)(C)N([C@H]2CN[C@]3(CCCCB(O)OC3=O)C2)C1=O [Example 2, (3R,5R)-8-hydroxy-3-((S)-4-isopropyl-2,2-dimethyl-5-oxoimidazolidin-1-yl)-7-oxa-1-aza-8-boraspiro[4.7]dodecan-6-one] |  |  | less than 2% |
| CC(C)[C@H](N)C(=O)N[C@H]1CN[C@]2(CCCCB(O)OC2=O)C1 [Example 3, (S)-2-amino-N-((3R,5R)-8-hydroxy-6-oxo-7-oxa-1-aza-8-boraspiro[4.7]dodecan-3-yl)-3-methylbutanamide] |  |  | less than 2% |
